Measurements published in PubChem BioAssay (NCI).
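GI50 = concentration required for 50% inhibition of growth. TGI is the concentration that stops growth completely.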

Columns and labels:
Test in all cases: inhibition of tumour cell growth, NCI panel, 384-well format
[1] = tested on: BT-549 breast
[2] = tested on: HT29 colon
[3] = tested on: LOX IMVI melanoma
[4] = tested on: MCF7 breast
[5] = tested on: MDA-MB-231 breast
[6] = tested on: NCI-H322M lung
[7] = tested on: NCI-H522 lung
[8] = tested on: OVCAR-4 ovarian
[9] = tested on: SF-539 CNS
[10] = tested on: SW-620 colon
[11] = tested on: U251 glioblastoma
[12] = tested on: UACC-62 melanoma
[13] = tested on: UO-31 renal

Nc1nc(OCc2cc(Br)cs2)c2[nH]cnc2n1
GI50 [1]: 21.8 µM | TGI [1]: 53.5 µM | GI50 [2]: 46 µM | TGI [2]: > 100 µM | GI50 [3]: 22.5 µM | TGI [3]: 47.8 µM | GI50 [4]: 32.6 µM | TGI [4]: > 100 µM | GI50 [5]: 40.7 µM | TGI [5]: > 100 µM | GI50 [6]: 30.7 µM | TGI [6]: 80.3 µM | GI50 [7]: 27.6 µM | TGI [7]: > 77 µM | GI50 [8]: > 78.7 µM | TGI [8]: > 100 µM | GI50 [9]: 44.2 µM | TGI [9]: > 100 µM | GI50 [10]: 67.4 µM | TGI [10]: > 100 µM | GI50 [11]: 31.3 µM | TGI [11]: > 95.1 µM | GI50 [12]: 31.2 µM | TGI [12]: > 100 µM | GI50 [13]: 4.73 µM | TGI [13]: > 100 µM
